Reference: patent US10221163B2 (priority 2015, dated 2019)
Read-outs that look alike come from different tables or passages of the source.

How the values were obtained:
IMP-1 = IMP-1 (Serratia marcescens, UniProt P52699); assay: biochemical; type: biochemical; settings: CCF2-FA substrate, 2 pM enzyme, 2 hours at 25° C.
Method in brief: (§1)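 Semi-log dose-response curves, fitted with a 4-parameter model, gave IC50s. The underlying signal was CCF2-FA fluorescence following 2 hours at 25° C with enzyme, substrate and inhibitor combined.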

NDM-1 = NDM-1 (Klebsiella pneumoniae, UniProt C7C422); assay: biochemical; type: biochemical; settings: CCF2-FA substrate, 1 pM enzyme, 2 hours at 25° C.
Method in brief: as §1

[1] = system: Pseudomonas aeruginosa efflux− (MB9799), IMP-1; type: cell-based; settings: concentration restoring susceptibility to imipenem at 2 μg/mL in the presence of a class A, C, D serine β-lactamase inhibitor closely related to relebactam
Method in brief: (§2)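 Steps: add fixed imipenem and/or ceftazidime (usually CLSI breakpoint) and fixed AmpC-directed class A/C inhibitor to microbroth MIC wells; titrate MBL inhibitor; record concentration regaining susceptibility for each PAO1-derived strain; divide efflux+ by efflux− value.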

[2] = system: Pseudomonas aeruginosa efflux+ (MB9798), IMP-1; type: cell-based; settings: concentration restoring susceptibility to imipenem at 2 μg/mL in the presence of a class A, C, D serine β-lactamase inhibitor closely related to relebactam
Method in brief: as §2

[3] = system: Pseudomonas aeruginosa MB9798 vs MB9799; settings: ratio MITC95 PA_9798/MITC95 PA_9799
Method in brief: as §2

[4] = system: Klebsiella pneumoniae expressing VIM-1 (IHMA599644); type: cell-based; settings: with imipenem 1 μg/ml; 95% inhibition of bacterial growth
Method in brief: (§3)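 Colonies grown overnight on blood agar at 35° C were suspended in saline, diluted 1:100 into 1.1×CAMHB and dispensed. Imipenem was added to 1 μg/ml, then test compound. After 22 hours to 24 hours at 35° C, absorbance was recorded.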

[5] = system: Escherichia coli expressing NDM-1 (CLB30005, CLB30016); type: cell-based; settings: with imipenem 1 μg/ml; 95% inhibition of bacterial growth
Method in brief: as §3

[6] = system: Serratia marcescens expressing IMP-1 (CL5741); type: cell-based; settings: with imipenem 1 μg/ml; 95% inhibition of bacterial growth
Method in brief: as §3

VIM-1 = VIM-1 (Pseudomonas aeruginosa (strain ATCC 15692 / DSM 22644 / CIP 104116 / JCM 14847 / LMG 12228 / 1C / PRS 101 / PAO1), UniProt A0A0F7KYQ8); assay: biochemical; settings: CCF2-FA substrate, 30 pM enzyme, 2 hours at 25° C.
Method in brief: as §1

[7] = fluorescence assay, read-out: IMP-1 IC50
[8] = fluorescence assay, read-out: NDM-1 IC50
[9] = fluorescence assay, read-out: VIM-1 IC50

Sequence of NDM-1 (C7C422 whole entry, looked up, species assumed): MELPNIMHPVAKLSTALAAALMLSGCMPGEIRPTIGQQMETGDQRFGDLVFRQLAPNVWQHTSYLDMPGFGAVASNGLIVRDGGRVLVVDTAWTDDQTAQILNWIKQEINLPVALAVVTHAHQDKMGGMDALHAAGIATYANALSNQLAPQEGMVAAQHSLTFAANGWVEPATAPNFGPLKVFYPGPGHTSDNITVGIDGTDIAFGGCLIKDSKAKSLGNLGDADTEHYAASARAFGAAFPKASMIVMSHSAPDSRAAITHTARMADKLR
Sequence of IMP-1 (P52699 whole entry, looked up, species assumed): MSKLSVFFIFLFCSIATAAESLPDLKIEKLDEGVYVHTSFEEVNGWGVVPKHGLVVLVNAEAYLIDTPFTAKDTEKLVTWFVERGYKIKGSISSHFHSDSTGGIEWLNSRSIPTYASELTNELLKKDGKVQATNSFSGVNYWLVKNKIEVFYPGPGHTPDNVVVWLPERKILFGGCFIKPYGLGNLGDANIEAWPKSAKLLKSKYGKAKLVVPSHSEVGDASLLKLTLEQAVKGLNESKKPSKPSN

| Compound | IC50 (IMP-1; [7]) [nM] | IC50 (NDM-1; [8]) [nM] | P. aeruginosa expressing IMP-1, efflux − (MB9799) MITC95 [1] [µM] | P. aeruginosa expressing IMP-1, efflux + (MB9798) MITC95 [2] [µM] | Efflux ratio [3] | Klebsiella pneumoniae expressing VIM-1 (IHMA599644) MITC95 [4] [µM] | Escherichia coli expressing NDM-1 (CLB30016) MITC95 [5] [µM] | Serratia marcescens expressing IMP-1 (CL5741) MITC95 [6] [µM] | IC50 (VIM-1; [9]) [nM] | IC50 (VIM-1; VIM-1 IC50, fluorescence assay) [nM] | IC50 (IMP-1; IMP-1 IC50, fluorescence assay) [nM] | IC50 (NDM-1; NDM-1 IC50, fluorescence assay) [nM] |
| --- | --- | --- | --- | --- | --- | --- | --- | --- | --- | --- | --- | --- |
| Nc1nc2c(-c3ccc(S(=O)(=O)N4CCC[C@H](N)C4)c(S(N)(=O)=O)c3-c3nnn[nH]3)cccc2s1 [Example 66, 3-(2-amino-1,3-benzothiazol-4-yl)-6-{[(3S)-3-aminopiperidin-1-yl]sulfonyl}-2-(1H-tetrazol-5-yl)benzenesulfonamide] | 2.26 | 1.09 | 1.563 | 3.125 | 2.00 | 6.25 | 3.125 | 3.125 | 4.01 | – | – | – |
| Nc1nc2c(-c3ccc(S(=O)(=O)N[C@H]4CCCNC4)c(S(N)(=O)=O)c3-c3nnn[nH]3)cccc2s1 [Example 67, 4-(2-amino-1,3-benzothiazol-4-yl)-N1-[(3S)-piperidin-3-yl]-3-(1H-tetrazol-5-yl)benzene-1,2-disulfonamide] | 0.488 | 0.0407 | 1.563 | 1.563 | 1.00 | 3.125 | 1.563 | 1.563 | – | 0.271 | – | – |
| Nc1nc2c(-c3ccc(S(=O)(=O)N4CCC[C@@H](N)C4)c(S(N)(=O)=O)c3-c3nnn[nH]3)cccc2s1 [Example 68, 3-(2-amino-1,3-benzothiazol-4-yl)-6-{[(3R)-3-aminopiperidin-1-yl]sulfonyl}-2-(1H-tetrazol-5-yl)benzenesulfonamide] | – | – | 1.563 | 3.125 | 2.00 | 3.125 | 3.125 | 1.563 | 3.7 | – | 1.97 | 1.01 |
| Nc1nc2c(-c3ccc(S(=O)(=O)N[C@@H]4CCCNC4)c(S(N)(=O)=O)c3-c3nnn[nH]3)cccc2s1 [Example 69, 4-(2-amino-1,3-benzothiazol-4-yl)-N1-[(3R)-piperidin-3-yl]-3-(1H-tetrazol-5-yl)benzene-1,2-disulfonamide] | 0.184 | 0.0323 | 1.563 | 0.7813 | 0.50 | 3.125 | 0.7813 | 1.563 | – | 0.185 | – | – |
| NC[C@@H]1CCN(S(=O)(=O)c2ccc(-c3cccc4sc(N)nc34)c(-c3nnn[nH]3)c2S(N)(=O)=O)C1 [Example 70, 3-(2-amino-1,3-benzothiazol-4-yl)-6-{[(3S)-3-(aminomethyl)pyrrolidin-1-yl]sulfonyl}-2-(1H-tetrazol-5-yl)benzenesulfonamide] | 2.31 | 1.95 | 3.125 | 3.125 | 1.00 | 12.5 | 6.25 | 3.125 | – | 2.79 | – | – |
| Nc1nc2c(-c3ccc(S(=O)(=O)NC[C@H]4CCNC4)c(S(N)(=O)=O)c3-c3nnn[nH]3)cccc2s1 [Example 73, 4-(2-amino-1,3-benzothiazol-4-yl)-N^1-[(3S)-pyrrolidin-3-ylmethyl]-3-(1H-tetrazol-5-yl)benzene-1,2-disulfonamide] | – | 0.0332 | 1.563 | 0.7813 | 0.50 | 3.125 | 1.563 | 1.563 | – | 0.125 | 0.16 | – |
| NC[C@H]1CCN(S(=O)(=O)c2ccc(-c3cccc4sc(N)nc34)c(-c3nnn[nH]3)c2S(N)(=O)=O)C1 [Example 74, 3-(2-amino-1,3-benzothiazol-4-yl)-6-{[(3R)-3-(aminomethyl)pyrrolidin-1-yl]sulfonyl}-2-(1H-tetrazol-5-yl)benzenesulfonamide] | – | 0.646 | 1.172 | 1.172 | 1.00 | 3.125 | 2.344 | 2.344 | – | 1.14 | 0.84 | – |
| Nc1nc2c(-c3ccc(S(=O)(=O)NC[C@@H]4CCNC4)c(S(N)(=O)=O)c3-c3nnn[nH]3)cccc2s1 [Example 75, 4-(2-amino-1,3-benzothiazol-4-yl)-N^1-[(3R)-pyrrolidin-3-ylmethyl]-3-(1H-tetrazol-5-yl)benzene-1,2-disulfonamide] | – | 0.0207 | 0.7813 | 0.7813 | 1.00 | 3.125 | 1.563 | 1.563 | – | 0.115 | 0.158 | – |
| CN1CC[C@@H](CNS(=O)(=O)c2ccc(-c3cccc4sc(N)nc34)c(-c3nnn[nH]3)c2S(N)(=O)=O)C1 [Example 76, 4-(2-amino-1,3-benzothiazol-4-yl)-N^1-{[(3R)-1-methylpyrrolidin-3-yl]methyl}-3-(1H-tetrazol-5-yl)benzene-1,2-disulfonamide] | 0.195 | 0.0285 | 1.563 | 0.7813 | 0.50 | 3.125 | 3.125 | 1.563 | – | 0.129 | – | – |
| CN1CC[C@H](CNS(=O)(=O)c2ccc(-c3cccc4sc(N)nc34)c(-c3nnn[nH]3)c2S(N)(=O)=O)C1 [Example 77, 4-(2-amino-1,3-benzothiazol-4-yl)-N1-{[(3S)-1-methylpyrrolidin-3-yl]methyl}-3-(1H-tetrazol-5-yl)benzene-1,2-disulfonamide] | 0.166 | 0.0341 | 1.563 | 0.7813 | 0.50 | 6.25 | 3.125 | 1.563 | – | 0.133 | – | – |
| Nc1nc2c(-c3ccc(S(=O)(=O)N[C@H]4CN[C@H](CO)C4)c(S(N)(=O)=O)c3-c3nnn[nH]3)cccc2s1 [Example 78, 4-(2-amino-1,3-benzothiazol-4-yl)-N1-[(3R,5S)-5-(hydroxymethyl)pyrrolidin-3-yl]-3-(1H-tetrazol-5-yl)benzene-1,2-disulfonamide] | 0.234 | 0.0225 | 1.563 | 0.7813 | 0.50 | 3.125 | 3.125 | 1.563 | – | 0.183 | – | – |
| Nc1nc2c(-c3ccc(S(=O)(=O)N[C@@H]4CN[C@@H](CO)C4)c(S(N)(=O)=O)c3-c3nnn[nH]3)cccc2s1 [Example 79, 4-(2-amino-1,3-benzothiazol-4-yl)-N1-[(3S,5R)-5-(hydroxymethyl)pyrrolidin-3-yl]-3-(1H-tetrazol-5-yl)benzene-1,2-disulfonamide] | 0.283 | 0.0427 | 1.563 | 0.7813 | 0.50 | 3.125 | 1.563 | 1.563 | – | 0.181 | – | – |
